Results reported in patent US20260256792A1, “TREATMENT OF CHRONIC SPONTANEOUS URTICARIA BY ADMINISTERING (R)-2-[3-[4-AMINO-3-(2-FLUORO-4-PHENOXY-PHENYL)PYRAZOLO[3,4-D]PYRIMIDIN-1-YL]PIPERIDINE-1-CARBONYL]-4-METHYL-4-[4-(OXETAN-3-YL)PIPERAZIN-1-YL]PENT-2-ENENITRILE” (priority 2023, published 2026).

Tested on: moderate-to-severe chronic spontaneous urticaria (CSU)
Assay: Phase 2 CSU study: urticaria activity score over 7 days (UAS7)
Assay type: in vivo, human
Details: ITT, 400 mg QPM
Text: The study comprises a 12 week, randomized, double-blind, placebo-controlled, multi-center, dose-ranging efficacy and safety phase, followed by a 40 week open label extension (OLE) phase (see FIG. 1). The study consists of three phases and an optional OLE phase. […] Clinically, CSU is characterized by the spontaneous and recurrent appearance of pruritic hives. The proposed primary endpoints were the UAS7 at Week 12 in EU and EU reference countries and the ISS7 in the US. Regardless of where a participant was from, all assessments were the same. The UAS7 score is a composite score containing both the HSS7 and the ISS7. This allowed a global assessment of the two key components of urticaria: hives and itch. […] The UAS is a validated PRO measure. […] The daily UAS scores range from 0 to 6 point/day. […] Patients were to complete the UAS using the e-diary. […] The following secondary endpoints were to be analyzed using the same approach as for the primary endpoint: • Change from baseline in UAS7 at Week 4 • Change from baseline in UAS7 at Week 12 (for US and US reference countries) • Change from baseline in ISS7 at Week 12 (except US and US reference countries) • Change from baseline in HSS7 at Week 12 The following responder secondary endpoints were to be analyzed using the Cochran-Mantel-Haenszel test adjusted by region: • Proportion of participants with UAS7<6 at Week 12 • Proportion of participants with UAS7=0 at Week 12 Participants who received selected prohibited medications and/or rescue medications were to be considered as non-responders for time points after the medication usage. For other participants, all available data including those collected during the off-treatment period were to be used to determine the responder/non-responder status. Missing data were to be considered as non-responders.

In the case of `CC(C)(C=C(C#N)C(=O)N1CCC[C@@H](n2nc(-c3ccc(Oc4ccccc4)cc3F)c3c(N)ncnc32)C1)N1CCN(C2COC2)CC1` [rilzabrutinib, (R)-2-[3-[4-amino-3-(2-fluoro-4-phenoxy-phenyl)pyrazolo[3,4-d]pyrimidin-1-yl]piperidine-1-carbonyl]-4-methyl-4-[4-(oxetan-3-yl)piperazin-1-yl]pent-2-enenitrile], the “Non-responder n (%), UAS7 = 0” value (Week 6) is reported as 37 (97.4) n (%), the “Non-responder n (%), UAS7 ≤6” value (Week 6) is reported as 35 (92.1) n (%) and the “OR for rilzabrutinib vs. placebo, UAS7 = 0” value (Week 6) is reported as 1.000. For the same compound, the “OR for rilzabrutinib vs. placebo, UAS7 ≤6” value (Week 6) was 0.540, the “RRD (%) for rilzabrutinib vs. placebo, UAS7 = 0” value (shortened to “RRD (%) … UAS7 = 0”) (Week 6) was 0.0 % and the “RRD (%) for rilzabrutinib vs. placebo, UAS7 ≤6” value (from here on “RRD (%) … UAS7 ≤6”) (Week 6) was −6.3%. The “Responder n (%), UAS7 = 0” value (Week 6) was 1 (2.6) n (%), the “Responder n (%), UAS7 ≤6” value (Week 6) was 3 (7.9) n (%) and the “Imputed non-responder n (%), UAS7 = 0” value (Week 7) was 6 (15.8) n (%). For the same compound, the “Imputed non-responder n (%), UAS7 ≤6” value (Week 7) was 6 (15.8) n (%), the “Non-responder n (%), UAS7 = 0” value (Week 7) was 37 (97.4) n (%) and the “Non-responder n (%), UAS7 ≤6” value (Week 7) was 37 (97.4) n (%). For the same compound, the “OR for rilzabrutinib vs. placebo, UAS7 = 0” value (Week 7) was 1.167, the “OR for rilzabrutinib vs. placebo, UAS7 ≤6” value (Week 7) was 0.278 and the “RRD (%) … UAS7 = 0” value (Week 7) was 0.4 %. The “RRD (%) … UAS7 ≤6” value (Week 7) was −7.3%, the “Responder n (%), UAS7 = 0” value (Week 7) was 1 (2.6) n (%) and the “Responder n (%), UAS7 ≤6” value (Week 7) was 1 (2.6) n (%). For the same compound, the “Imputed non-responder n (%), UAS7 = 0” value (Week 8) was 7 (18.4) n (%), the “Imputed non-responder n (%), UAS7 ≤6” value (Week 8) was 7 (18.4) n (%) and the “Non-responder n (%), UAS7 = 0” value (Week 8) was 37 (97.4) n (%). For the same compound, the “Non-responder n (%), UAS7 ≤6” value (Week 8) was 35 (92.1) n (%), the “OR for rilzabrutinib vs. placebo, UAS7 = 0” value (Week 8) was 0.527 and the “OR for rilzabrutinib vs. placebo, UAS7 ≤6” value (Week 8) was 0.502. For the same compound, the “RRD (%) … UAS7 = 0” value (Week 8) was −2.2 %, the “RRD (%) … UAS7 ≤6” value (Week 8) was −7.0% and the “Responder n (%), UAS7 = 0” value (Week 8) was 1 (2.6) n (%). For the same compound, the “Responder n (%), UAS7 ≤6” value (Week 8) was 3 (7.9) n (%), the “Imputed non-responder n (%), UAS7 = 0” value (Week 9) was 6 (15.8) n (%) and the “Imputed non-responder n (%), UAS7 ≤6” value (Week 9) was 6 (15.8) n (%). For the same compound, the “Non-responder n (%), UAS7 = 0” value (Week 9) was 37 (97.4) n (%), the “Non-responder n (%), UAS7 ≤6” value (Week 9) was 35 (92.1) n (%) and the “OR for rilzabrutinib vs. placebo, UAS7 = 0” value (Week 9) was 0.330. The “OR for rilzabrutinib vs. placebo, UAS7 ≤6” value (Week 9) was 0.773, the “RRD (%) … UAS7 = 0” value (Week 9) was −4.9 % and the “RRD (%) … UAS7 ≤6” value (Week 9) was −2.2 %. The “Responder n (%), UAS7 = 0” value (Week 9) was 1 (2.6) n (%), the “Responder n (%), UAS7 ≤6” value (Week 9) was 3 (7.9) n (%) and the “Imputed non-responder n (%), UAS7 = 0” value (Week 10) was 6 (15.8) n (%). For the same compound, the “Imputed non-responder n (%), UAS7 ≤6” value (Week 10) was 6 (15.8) n (%), the “Non-responder n (%), UAS7 = 0” value (Week 10) was 37 (97.4) n (%) and the “Non-responder n (%), UAS7 ≤6” value (Week 10) was 36 (94.7) n (%). The “OR for rilzabrutinib vs. placebo, UAS7 = 0” value (Week 10) was 0.235, the “OR for rilzabrutinib vs. placebo, UAS7 ≤6” value (Week 10) was 0.279 and the “RRD (%) … UAS7 = 0” value (Week 10) was −7.9 %. The “RRD (%) … UAS7 ≤6” value (Week 10) was −11.9%, the “Responder n (%), UAS7 = 0” value (Week 10) was 1 (2.6) n (%) and the “Responder n (%), UAS7 ≤6” value (Week 10) was 2 (5.3) n (%). For the same compound, the “Imputed non-responder n (%), UAS7 = 0” value (Week 11) was 7 (18.4) n (%), the “Imputed non-responder n (%), UAS7 ≤6” value (Week 11) was 7 (18.4) n (%) and the “Non-responder n (%), UAS7 = 0” value (Week 11) was 36 (94.7) n (%). For the same compound, the “Non-responder n (%), UAS7 ≤6” value (Week 11) was 35 (92.1) n (%), the “OR for rilzabrutinib vs. placebo, UAS7 = 0” value (Week 11) was 1.065 and the “OR for rilzabrutinib vs. placebo, UAS7 ≤6” value (Week 11) was 0.418. The “RRD (%) … UAS7 = 0” value (Week 11) was 0.3 %, the “RRD (%) … UAS7 ≤6” value (Week 11) was −9.4% and the “Responder n (%), UAS7 = 0” value (Week 11) was 2 (5.3) n (%). The “Responder n (%), UAS7 ≤6” value (Week 11) was 3 (7.9) n (%), the “Imputed non-responder n (%), UAS7 = 0” value (Week 12) was 10 (26.3) n (%) and the “Imputed non-responder n (%), UAS7 ≤6” value (Week 12) was 10 (26.3) n (%). For the same compound, the “Non-responder n (%), UAS7 = 0” value (Week 12) was 37 (97.4) n (%), the “Non-responder n (%), UAS7 ≤6” value (Week 12) was 36 (94.7) n (%) and the “OR for rilzabrutinib vs. placebo, UAS7 = 0” value (Week 12) was 0.194. For the same compound, the “OR for rilzabrutinib vs. placebo, UAS7 ≤6” value (Week 12) was 0.378, the “RRD (%) … UAS7 = 0” value (Week 12) was −10.0 % and the “RRD (%) … UAS7 ≤6” value (Week 12) was −7.6%. For the same compound, the “Responder n (%), UAS7 = 0” value (Week 12) was 1 (2.6) n (%).
